In patent US20150125528A1 (The Water Initiative, LLC, priority 2012, published 2015):

Test: calcium hypochlorite stability temperature data
Assay type: physicochemical
Details: below approximately 120° C., 15 minute exposure
Description: FIG. 2 illustrates calcium hypochlorite stability temperature data.

[Ca+2].[O-]Cl.[O-]Cl [calcium hypochlorite]
free chlorine concentration on heating: maintains its free chlorine concentration
